Measured values taken from ChEMBL document CHEMBL3885881, “DrugMatrix”.

Organism: Rattus norvegicus
Assay: DrugMatrix - Regimen: Daily Repeat
Format: toxicity, organism-based, Sprague-Dawley
Parameters: regimen Daily Repeat, gender Male, age 6-8 weeks
Details: in vivo, po, 400 mg/kg, route oral GAVAGE, dose level High, […]; for ABSOLUTE BASOPHIL / ABSOLUTE EOSINOPHIL / ABSOLUTE LYMPHOCYTE / ABSOLUTE MONOCYTE / ABSOLUTE SEGMENTED NEUTROPHIL / BASOPHIL / EOSINOPHIL / ERYTHROCYTE COUNT / HEMATOCRIT / HEMOGLOBIN / LEUKOCYTE COUNT / LYMPHOCYTE / MEAN CORPUSCULAR HEMOGLOBIN / MEAN CORPUSCULAR HEMOGLOBIN CONCENTRATION / MEAN CORPUSCULAR VOLUME / MONOCYTE / NEUTROPHIL / NUCLEATED RED BLOOD CELLS / PLATELET COUNT: tissue Blood; for ALANINE AMINOTRANSFERASE / ALBUMIN / ALKALINE PHOSPHATASE / ASPARTATE AMINOTRANSFERASE / BLOOD UREA NITROGEN / CARBON DIOXIDE / CHLORIDE / CHOLESTEROL / CREATINE PHOSPHOKINASE / CREATININE / GLUCOSE / LACTATE DEHYDROGENASE / LIPASE / PHOSPHORUS / POTASSIUM / SODIUM / TOTAL BILIRUBIN / TOTAL PROTEIN / URIC ACID: tissue Plasma

COC(=O)[C@H](c1ccccc1Cl)N1CCc2sccc2C1 [CLOPIDOGREL]
ABSOLUTE BASOPHIL (72 h, time 3 day): 0 CELLS/uL | ABSOLUTE EOSINOPHIL (72 h, time 3 day): 86.67 CELLS/uL | ABSOLUTE LYMPHOCYTE (72 h, time 3 day): 12550.67 CELLS/uL | ABSOLUTE MONOCYTE (72 h, time 3 day): 229.67 CELLS/uL | ABSOLUTE SEGMENTED NEUTROPHIL (72 h, time 3 day): 1366.33 CELLS/uL | BASOPHIL (72 h, time 3 day): 0% | EOSINOPHIL (72 h, time 3 day): 0.67% | ERYTHROCYTE COUNT (72 h, time 3 day): 5.22 x10E6/uL | HEMATOCRIT (72 h, time 3 day): 31.7% | HEMOGLOBIN (72 h, time 3 day): 12.8 G/DL | LEUKOCYTE COUNT (72 h, time 3 day): 14.23 x10E3/uL | LYMPHOCYTE (72 h, time 3 day): 88% | MEAN CORPUSCULAR HEMOGLOBIN (72 h, time 3 day): 24.5 pg | MEAN CORPUSCULAR HEMOGLOBIN CONCENTRATION (72 h, time 3 day): 40.4 G/DL | MEAN CORPUSCULAR VOLUME (72 h, time 3 day): 60.77 fL | MONOCYTE (72 h, time 3 day): 1.67% | NEUTROPHIL (72 h, time 3 day): 9.67% | NUCLEATED RED BLOOD CELLS (72 h, time 3 day): 0 /100WBC | PLATELET COUNT (72 h, time 3 day): 1169.33 x10E3/uL | ALANINE AMINOTRANSFERASE (72 h, time 3 day): 98.67 u/L | ALBUMIN (72 h, time 3 day): 3.97 G/DL | ALKALINE PHOSPHATASE (72 h, time 3 day): 463 u/L | ASPARTATE AMINOTRANSFERASE (72 h, time 3 day): 113 u/L | BLOOD UREA NITROGEN (72 h, time 3 day): 13.67 mg/dL | CARBON DIOXIDE (72 h, time 3 day): 27.67 mmol/L | CHLORIDE (72 h, time 3 day): 102.67 MEQ/L | CHOLESTEROL (72 h, time 3 day): 80 mg/dL | CREATINE PHOSPHOKINASE (72 h, time 3 day): 460.67 u/L | CREATININE (72 h, time 3 day): 0.21 mg/dL | GLUCOSE (72 h, time 3 day): 145 mg/dL | LACTATE DEHYDROGENASE (72 h, time 3 day): 361 u/L | LIPASE (72 h, time 3 day): 14.33 u/L | PHOSPHORUS (72 h, time 3 day): 10.53 mg/dL | POTASSIUM (72 h, time 3 day): 6.16 MEQ/L | SODIUM (72 h, time 3 day): 141.23 MEQ/L | TOTAL BILIRUBIN (72 h, time 3 day): 0.23 mg/dL | TOTAL PROTEIN (72 h, time 3 day): 5.47 G/DL | URIC ACID (72 h, time 3 day): 1.13 mg/dL | ABSOLUTE BASOPHIL (120 h, time 5 day): 0 CELLS/uL | ABSOLUTE EOSINOPHIL (120 h, time 5 day): 131.33 CELLS/uL | ABSOLUTE LYMPHOCYTE (120 h, time 5 day): 15650.33 CELLS/uL | ABSOLUTE MONOCYTE (120 h, time 5 day): 297.33 CELLS/uL | ABSOLUTE SEGMENTED NEUTROPHIL (120 h, time 5 day): 2887.67 CELLS/uL | BASOPHIL (120 h, time 5 day): 0% | EOSINOPHIL (120 h, time 5 day): 0.67% | ERYTHROCYTE COUNT (120 h, time 5 day): 5.21 x10E6/uL | HEMATOCRIT (120 h, time 5 day): 31.5% | HEMOGLOBIN (120 h, time 5 day): 12.6 G/DL | LEUKOCYTE COUNT (120 h, time 5 day): 18.97 x10E3/uL | LYMPHOCYTE (120 h, time 5 day): 84% | MEAN CORPUSCULAR HEMOGLOBIN (120 h, time 5 day): 24.17 pg | MEAN CORPUSCULAR HEMOGLOBIN CONCENTRATION (120 h, time 5 day): 40 G/DL | MEAN CORPUSCULAR VOLUME (120 h, time 5 day): 60.37 fL | MONOCYTE (120 h, time 5 day): 1.67% | NEUTROPHIL (120 h, time 5 day): 13.67% | NUCLEATED RED BLOOD CELLS (120 h, time 5 day): 0 /100WBC | PLATELET COUNT (120 h, time 5 day): 1167.67 x10E3/uL | ALANINE AMINOTRANSFERASE (120 h, time 5 day): 76 u/L | ALBUMIN (120 h, time 5 day): 3.8 G/DL | ALKALINE PHOSPHATASE (120 h, time 5 day): 362.67 u/L | ASPARTATE AMINOTRANSFERASE (120 h, time 5 day): 110.67 u/L | BLOOD UREA NITROGEN (120 h, time 5 day): 16.33 mg/dL | CARBON DIOXIDE (120 h, time 5 day): 26 mmol/L | CHLORIDE (120 h, time 5 day): 101 MEQ/L | CHOLESTEROL (120 h, time 5 day): 86.67 mg/dL | CREATINE PHOSPHOKINASE (120 h, time 5 day): 941 u/L | CREATININE (120 h, time 5 day): 0.15 mg/dL | GLUCOSE (120 h, time 5 day): 135 mg/dL | LACTATE DEHYDROGENASE (120 h, time 5 day): 452.33 u/L | LIPASE (120 h, time 5 day): 12.33 u/L | PHOSPHORUS (120 h, time 5 day): 12.5 mg/dL | POTASSIUM (120 h, time 5 day): 5.63 MEQ/L | SODIUM (120 h, time 5 day): 141.87 MEQ/L | TOTAL BILIRUBIN (120 h, time 5 day): 0.2 mg/dL | TOTAL PROTEIN (120 h, time 5 day): 5.4 G/DL | URIC ACID (120 h, time 5 day): 1.1 mg/dL
